The values below come from patent publication US20100035943A1, “Oxa-and thiadiazoles and their use as metalloproteinase inhibitors” (VERNALIS (OXFORD) LTD, priority 2002, published 2010).

Assay [1] addresses 92 kDa gelatinase (MMP9) (Homo sapiens, UniProt P14780). As to the kind of experiment: MMP9 enzyme inhibition assay (fluorogenic peptide substrate McaPLGLDpaAR). In kind it is biochemical. To be noted: recombinant human 92 kDa gelatinase, 37° C., 2 hours. As to the method:
Compounds were tested for inhibitory activity against 92 kDa gelatinase (MMP9) in an assay using a coumarin-labelled peptide substrate, (7-methoxycoumarin-4-yl)acetyl-Pro-Leu-Gly-Leu-(3-[2,4-dinitrophenyl]-L-2,3-diaminopropionyl)-Ala-Arg-NH2 (McaPLGLDpaAR) (Knight et al, FEBS Lett. 1992; 263-266).
(§1) Stock solutions were made up as follows: • Assay Buffer: 100 mM Tris-HCl pH 7.6 containing 100 mM NaCl, 10 mM CaCl2, and 0.05% Brij 35 • Substrate: 0.4 mM McaPLGLDpaAR (from Bachem) (0.437 mg/ml) stock solution in 100% DMSO (stored at −20° C.). Dilute to 8 μM in assay buffer. • Enzyme: Recombinant human 92 kDa gelatinase (MMP-9; APMA (4-aminophenyl • mercuric acetate)—activated if necessary) appropriately diluted in assay buffer.
(§2) Test Compounds were prepared initially as 10 mM compound solution in 100% DMSO, diluted to 1 mM in 100% DMSO, then serially diluted 3-fold in 100% DMSO across columns 1-10 of a 96-well microtitre plate Assay concentration range, 100 μM (column 1) to 5.1 nM (column 10)
(§3) The assay was performed in a total volume of 100 μl per well in 96-well microtitre plates. Activated enzyme (20 μl) was added to the wells followed by 20 μl of assay buffer. Appropriate concentrations of test compounds dissolved in 10 μl of DMSO were then added followed by 50 μl of McaPLGLDpaAR (8 μM, prepared by dilution of DMSO stock in assay buffer). For each assay ten concentrations of test compound were examined in duplicate. Control wells lack either enzyme or test compound. The reactions were incubated at 37° C. for 2 hours. The fluorescence at 405 nm was measured immediately with an SLT Fluostar fluorometer (SLT Labinstruments GmbH, Grödig, Austria) using 320 nm excitation, without stopping the reaction.
(§4) The effect of the test compound was determined from the dose response curve generated by the 10 duplicate concentrations of inhibitor. The IC50 (the concentration of compound required to give a 50% decrease in enzyme activity) was obtained by fitting data to the equation, Y=a+((b−a)/(1+(c/X)^d)). (Y=inhibition achieved for a particular dose; X=the dose in nM; a=minimum y or zero % inhibition; b=maximum y or 100% inhibition; c=is the IC50; d=is the slope). The result was rounded to one significant figure.

Assay [2] has as its target metalloelastase (MMP12) (Homo sapiens, UniProt P39900). As to the kind of experiment: MMP12 enzyme inhibition assay (fluorogenic peptide substrate McaPLGLDpaAR). In kind it is biochemical. The note with it: protocol as for MMP9 assay. As to the method: as §1, §2, §3, §4
Compounds were tested for inhibitory activity against metalloelastase (MMP12) in an assay using a coumarin-labelled peptide substrate, (7-methoxycoumarin-4-yl)acetyl-Pro-Leu-Gly-Leu-(3-[2,4-dinitrophenyl]-L-2,3-diaminopropionyl)-Ala-Arg-NH2 (McaPLGLDpaAR) (Knight et al, FEBS Lett. 1992; 263-266). The protocol for this assay was as described for the MMP9 assay above.

Assay [3] concerns the target T1, collagenase (MMP1) (Homo sapiens, UniProt P03956).
T1 sequence (P03956 100-469): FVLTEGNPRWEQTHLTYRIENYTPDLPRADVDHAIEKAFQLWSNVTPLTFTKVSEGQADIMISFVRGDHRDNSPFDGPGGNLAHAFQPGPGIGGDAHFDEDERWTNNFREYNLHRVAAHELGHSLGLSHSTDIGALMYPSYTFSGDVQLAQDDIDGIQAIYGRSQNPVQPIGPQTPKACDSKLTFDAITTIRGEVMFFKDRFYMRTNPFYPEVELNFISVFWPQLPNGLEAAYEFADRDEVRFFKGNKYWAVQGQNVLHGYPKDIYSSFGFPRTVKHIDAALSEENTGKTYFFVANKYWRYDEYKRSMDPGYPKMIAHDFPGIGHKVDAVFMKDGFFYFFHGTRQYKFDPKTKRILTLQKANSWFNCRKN
As to the kind of experiment: MMP1 enzyme inhibition assay (fluorogenic peptide substrate McaPLGLDpaAR). In kind it is biochemical. To be noted: protocol as for MMP9 assay. The protocol: as §1, §2, §3, §4
• Compounds were tested for inhibitory activity against collagenase (MMP1) in an assay using a coumarin-labelled peptide substrate, (7-methoxycoumarin-4-yl)acetyl-Pro-Leu-Gly-Leu-(3-[2,4-dinitrophenyl]-L-2,3-diaminopropionyl)-Ala-Arg-NH2 (McaPLGLDpaAR) (Knight et al, FEBS Lett. 1992; 263-266). The protocol for this assay was as described for the MMP9 assay above.

For assay [4], the system named is IL2-induced lymphocyte recruitment. As to the kind of experiment: IL2-induced peritoneal recruitment of lymphocytes. In kind it is in vivo, C3H/HEN mice. The note with it: mice, Subcutaneous route, 15 min prior to IL2, cells counted 24 hours after IL2. The protocol:
Administration of IL2 intraperitoneally causes migration of lymphocytes into the intraperitoneal cavity. This is a model for the cellular migration that occurs during inflammation.
C3H/HEN mice (Elevage Janvier, France) were intraperitoneally injected with IL2 (Serono Pharmaceutical Research Institute, 20 μg/kg, in saline). Compounds of the invention were suspended in 0.5% carboxymethylcellulose (CMC)/0.25% tween-20 and were administered by sc or po route (10 ml/kg) 15 min prior to administration of IL2.
Twenty-four hours after administration of IL2, peritoneal white blood cells were collected by 3 successive lavages of the peritoneal cavity with 5 ml phosphate buffered saline (PBS)-1 mM EDTA (+4° C.). The suspension was centrifuged (1700 g×10 min at +4° C.). The resulting pellet was suspended in 1 ml PBS-1 mM EDTA.
Lymphocytes were identified and counted using a Beckman/Coulter counter.
The animals were divided into 5 groups (6 mice each group):
Group 1: (baseline) received 0.5% CMC/0.25% tween-20 (vehicle of compound of the invention) and saline (vehicle of IL2); Group 2: (control IL2) received 0.5% CMC/0.25% tween-20 and injection of IL2; Group 3: Experimental group (Compound of the invention Dose 1) received a compound of the invention and injection of IL2; Group 4: Experimental group (Compound of the invention Dose 2) received a compound of the invention and injection of IL2; Group 5: Experimental group (Compound of the invention Dose 3) received a compound of the invention and injection of IL2; Group 6: Reference group received reference compound dexamethasone and injection of IL2
Inhibition of lymphocyte recruitment was calculated as follows:
Where Ly 1=Number of lymphocytes in group 1 (E3/μl), Ly 2=Number of lymphocytes in group 2 (E3/μl), Ly X=Number of lymphocytes in group X (3-5) (E3/μl)
The dose of compound of the invention required to inhibit lymphocyte recruitment by 50% (ID50) was calculated using a curve-fitting routine.

Where only a bound is given, the exact number is not on record here.

Sequence of metalloelastase (MMP12) (P39900 106-470): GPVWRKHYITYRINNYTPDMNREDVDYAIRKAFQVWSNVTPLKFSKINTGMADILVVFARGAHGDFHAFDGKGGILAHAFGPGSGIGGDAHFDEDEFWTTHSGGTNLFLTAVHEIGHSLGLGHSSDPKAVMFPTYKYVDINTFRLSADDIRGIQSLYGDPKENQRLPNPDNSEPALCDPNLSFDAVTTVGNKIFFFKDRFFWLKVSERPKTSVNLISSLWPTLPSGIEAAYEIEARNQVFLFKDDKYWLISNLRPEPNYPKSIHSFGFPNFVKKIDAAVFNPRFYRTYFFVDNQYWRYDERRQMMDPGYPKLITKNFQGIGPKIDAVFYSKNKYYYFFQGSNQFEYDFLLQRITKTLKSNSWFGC
Sequence of 92 kDa gelatinase (MMP9) (P14780 107-707 limits assumed): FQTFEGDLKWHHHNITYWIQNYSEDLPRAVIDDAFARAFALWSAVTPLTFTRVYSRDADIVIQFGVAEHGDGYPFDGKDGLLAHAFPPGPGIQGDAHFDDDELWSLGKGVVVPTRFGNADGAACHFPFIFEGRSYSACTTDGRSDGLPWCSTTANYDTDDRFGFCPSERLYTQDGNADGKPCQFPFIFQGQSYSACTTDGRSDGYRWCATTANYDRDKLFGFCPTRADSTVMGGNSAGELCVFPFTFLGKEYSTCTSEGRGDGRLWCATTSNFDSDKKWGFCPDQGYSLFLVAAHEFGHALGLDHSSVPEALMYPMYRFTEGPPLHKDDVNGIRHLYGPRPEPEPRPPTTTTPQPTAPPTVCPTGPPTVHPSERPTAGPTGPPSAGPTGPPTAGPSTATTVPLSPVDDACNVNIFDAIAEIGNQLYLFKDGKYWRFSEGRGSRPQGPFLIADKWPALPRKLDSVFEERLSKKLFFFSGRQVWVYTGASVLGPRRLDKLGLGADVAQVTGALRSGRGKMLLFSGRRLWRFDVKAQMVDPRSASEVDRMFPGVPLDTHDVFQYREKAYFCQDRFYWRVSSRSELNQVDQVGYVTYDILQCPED

Turning to `CC(C)C[C@@H](C(=O)N[C@H](c1noc(-c2ccco2)n1)C(C)(C)C)[C@H](O)C(=O)NO` [Example 5, 2S-Hydroxy-3R-[1S-(5-furan-2-yl-[1,2,4]oxadiazol-3-yl)-2,2-dimethyl-propylcarbamoyl]-5-methyl Hexanohydroxamic Acid], the IC50 (usually the point on the concentration scale where inhibition reaches its midpoint) in assay [1] is 100 to 1000 nM; in assay [2] it was under 100 nM; in assay [3] it was 100 to 1000 nM. Also, in assay [4], the “ID50 for inhibition of IL2-induced peritoneal recruitment of lymphocytes” value is reported as 1 mg/kg.
For the molecule `C[C@@H]1C[C@H]2[C@@H]3CCC4=CC(=O)C=C[C@]4(C)[C@@]3(F)[C@@H](O)C[C@]2(C)[C@@]1(O)C(=O)CO` [dexamethasone, reference compound], in assay [4], the “ID50 for inhibition of IL2-induced peritoneal recruitment of lymphocytes” value worked out at 0.05 mg/kg.
